Activity calls are given as the source filed them. No cut-off for these calls is given here.
Assays:
[1] = tested on: A549; assay: Antitumor activity against human A549 cells xenografted in nude mouse assessed as decrease in tumor weight at 60 mg/kg, ip qd measured after 22 days; format: functional, organism-based
[2] = tested on: Huh-7; assay: Antiproliferative activity against human HuH7 cells measured after 48 hrs by CCK8 assay; format: functional, cell-based; details: Huh-7, 48 h
[3] = tested on: PLC; assay: Antiproliferative activity against human PLC cells measured after 48 hrs by CCK8 assay; format: functional, cell-based
[4] = tested on: MKN-45; assay: Antiproliferative activity against human MKN45 cells measured after 48 hrs by CCK8 assay; format: functional, cell-based; details: MKN-45, 48 h
[5] = molecular target: T1, NEDD8-conjugating enzyme UBE2F (Homo sapiens) (UniProt Q969M7); assay: Inhibition of UBE2F in human A549 cells assessed as decrease in Cullin5-Nedd8 adduct level at 50 uM measured after 6 to 12 hrs by Western blot analysis; format: cell-based
T1 sequence (whole entry): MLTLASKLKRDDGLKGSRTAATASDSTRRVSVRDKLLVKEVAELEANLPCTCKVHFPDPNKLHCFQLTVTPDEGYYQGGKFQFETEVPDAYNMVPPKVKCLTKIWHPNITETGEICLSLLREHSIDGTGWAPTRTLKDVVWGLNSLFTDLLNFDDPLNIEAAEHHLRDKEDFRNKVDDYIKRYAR

[6] = tested on: A549; assay: Cell cycle arrest in human A549 cells assessed as accumulation at S phase at 50 uM measured after 24 hrs by propidium iodide/RNase A staining based flow cytometry analysis (reference value: 21.54 %); format: functional
[7] = tested on: A549; assay: Cell cycle arrest in human A549 cells assessed as accumulation at sub-G1 phase at 25 uM measured after 24 hrs by propidium iodide/RNase A staining based flow cytometry analysis (reference value: 0.89 %); format: functional
[8] = tested on: MCF7; assay: Antiproliferative activity against human MCF7 cells measured after 48 hrs by CCK8 assay; format: functional, cell-based; details: MCF7, 48 h
[9] = tested on: A549; assay: Inhibition of cullin-RING ligase in human A549 cells assessed as accumulation of p27 level at 50 to 125 uM and measured after 6 to 12 hrs by Western blot analysis; format: cell-based
[10] = tested on: A549; assay: Antitumor activity against human A549 cells xenografted in nude mouse assessed as decrease in tumor weight at 30 mg/kg, ip qd measured after 22 days; format: functional, organism-based
[11] = tested on: A549; assay: Cell cycle arrest in human A549 cells assessed as accumulation at G2 phase at 50 uM measured after 24 hrs by propidium iodide/RNase A staining based flow cytometry analysis (reference value: 12.69 %); format: functional
[12] = tested on: A549; assay: Cell cycle arrest in human A549 cells assessed as accumulation at G1 phase at 75 uM measured after 24 hrs by propidium iodide/RNase A staining based flow cytometry analysis (reference value: 63.84 %); format: functional
[13] = tested on: A549; assay: Induction of apoptosis in human A549 cells assessed as early apoptotic cells at 25 uM measured after 48 hrs by AnnexinV-FITC/propidium iodide staining based FACS analysis (reference value: 2.19 %); format: functional
[14] = tested on: BEAS-2B; assay: Cytotoxicity against human BEAS2B cells after 48 hrs by CCK-8 assay; format: cell-based
[15] = molecular target: T2, NEDD8/Cullin-1 (Homo sapiens) (UniProt Q13616+Q15843); assay: Inhibition of Nedd8-cullin1 (unknown origin) assessed as decrease in cullin1-Nedd8 adduct formation at 25 to 50 uM preincubated for 10 mins followed by ATP addition and measured after 30 mins by immunoblot analysis; format: protein assay
T2 sequence (Q13616 whole entry, looked up): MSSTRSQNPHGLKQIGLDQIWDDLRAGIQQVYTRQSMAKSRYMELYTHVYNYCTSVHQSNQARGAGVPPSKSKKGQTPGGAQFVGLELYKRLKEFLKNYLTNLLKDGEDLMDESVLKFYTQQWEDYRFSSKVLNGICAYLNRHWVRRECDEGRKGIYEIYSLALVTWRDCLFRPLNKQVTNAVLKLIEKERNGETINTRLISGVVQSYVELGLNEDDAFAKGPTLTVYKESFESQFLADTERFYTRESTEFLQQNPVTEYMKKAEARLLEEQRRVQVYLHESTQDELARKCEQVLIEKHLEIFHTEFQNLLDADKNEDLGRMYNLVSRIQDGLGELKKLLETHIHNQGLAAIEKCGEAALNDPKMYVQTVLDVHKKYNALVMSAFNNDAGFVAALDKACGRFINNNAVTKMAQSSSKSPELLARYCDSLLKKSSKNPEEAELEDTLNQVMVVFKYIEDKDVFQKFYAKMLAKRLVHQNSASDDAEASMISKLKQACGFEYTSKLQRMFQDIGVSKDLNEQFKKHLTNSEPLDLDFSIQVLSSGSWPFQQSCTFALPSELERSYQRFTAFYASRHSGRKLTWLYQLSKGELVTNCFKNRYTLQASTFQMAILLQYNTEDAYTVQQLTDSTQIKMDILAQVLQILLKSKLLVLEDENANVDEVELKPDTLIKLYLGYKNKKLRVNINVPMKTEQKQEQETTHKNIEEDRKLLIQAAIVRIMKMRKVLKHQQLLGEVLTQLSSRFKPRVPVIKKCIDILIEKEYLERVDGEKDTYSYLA
T2 sequence (Q15843 whole entry, looked up): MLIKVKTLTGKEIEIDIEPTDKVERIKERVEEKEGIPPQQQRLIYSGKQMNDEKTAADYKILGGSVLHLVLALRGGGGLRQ

[16] = tested on: A549; assay: Induction of apoptosis in human A549 cells assessed as increase in PARP cleavage at 50 to 100 uM by Western blot analysis; format: functional, cell-based
[17] = molecular target: T1, NEDD8-conjugating enzyme UBE2F (Homo sapiens); assay: Inhibition of UBE2F in human A549 cells assessed as decrease in Cullin5-Nedd8 adduct level measured after 6 to 12 hrs by Western blot analysis; format: cell-based
[18] = tested on: MGC-803; assay: Antiproliferative activity against human MGC803 cells measured after 48 hrs by CCK8 assay; format: functional, cell-based; details: MGC-803, 48 h
[19] = tested on: A549; assay: Effect on Ub-modified protein level in human A549 cells by Western blot analysis; format: functional, cell-based
[20] = tested on: A549; assay: Cell cycle arrest in human A549 cells assessed as accumulation at G1 phase at 25 uM measured after 24 hrs by propidium iodide/RNase A staining based flow cytometry analysis (reference value: 63.84 %); format: functional
[21] = molecular target: T3, NEDD8-conjugating enzyme Ubc12 (Homo sapiens) (UniProt P61081); assay: Inhibition of UBC12 in human A549 cells assessed as decrease in Cullin1-Nedd8 adduct level at 50 uM measured after 6 to 12 hrs by Western blot analysis; format: cell-based
T3 sequence (whole entry): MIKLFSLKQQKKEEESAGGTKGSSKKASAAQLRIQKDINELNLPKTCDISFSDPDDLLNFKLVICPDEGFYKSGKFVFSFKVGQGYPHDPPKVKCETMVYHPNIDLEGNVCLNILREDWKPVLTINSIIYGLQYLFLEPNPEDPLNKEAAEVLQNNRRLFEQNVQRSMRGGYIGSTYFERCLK

[22] = molecular target: T3, NEDD8-conjugating enzyme Ubc12 (Homo sapiens); assay: Inhibition of UBC12 in human A549 cells assessed as decrease in Cullin4a-Nedd8 adduct level measured after 6 to 12 hrs by Western blot analysis; format: cell-based
[23] = molecular target: T2, NEDD8/Cullin-1 (Homo sapiens); assay: Competitive inhibition of Nedd8-cullin1 (unknown origin) adduct formation assessed as decrease in cullin1-Nedd8 adduct formation at 50 uM preincubated for 10 mins followed by ATP addition and measured after 30 mins by immunoblot analysis; format: protein assay
[24] = tested on: A549; assay: Induction of apoptosis in human A549 cells assessed as early apoptotic cells at 50 uM measured after 48 hrs by AnnexinV-FITC/propidium iodide staining based FACS analysis (reference value: 2.19 %); format: functional
[25] = molecular target: T2, NEDD8/Cullin-1 (Homo sapiens); assay: Competitive inhibition of Nedd8-cullin1 (unknown origin) adduct formation at 12.5 to 50 uM assessed as increase in substrate Km by Lineweaver-Burk plot analysis; format: protein assay
[26] = molecular target: T4, Ubiquitin-conjugating enzyme E2 C (Homo sapiens) (UniProt O00762); assay: Inhibition of UbcH10 in human A549 cells assessed as reduction in protein ubiquitination by measuring Ubc10-ub adduct formation at 50 to 100 uM by Western blot analysis; format: cell-based
T4 sequence (whole entry): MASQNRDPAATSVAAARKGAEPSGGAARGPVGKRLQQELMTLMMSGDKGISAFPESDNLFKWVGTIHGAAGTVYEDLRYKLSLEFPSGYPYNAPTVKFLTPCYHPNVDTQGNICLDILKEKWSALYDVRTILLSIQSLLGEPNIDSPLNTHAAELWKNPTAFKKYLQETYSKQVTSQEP

How did the Activity [1] turn out when `CCOc1nc2cccc(C(=O)OC(C)OC(=O)OC3CCCCC3)c2n1Cc1ccc(-c2ccccc2-c2nn[nH]n2)cc1` (stereo unspecified) [CANDESARTAN CILEXETIL] was run?
Its Activity is “Active”.

What about the IC50 [2] of the same compound?
Its IC50 is over 100 µM.

And the IC50 [3]?
The IC50 was 60.2 µM.

What about the IC50 [4] of the same compound?
Its IC50 is 68.9 µM.

And the inhibition [5]?
The inhibition was “Active”.

What about the Activity [6] of the same compound?
Its Activity is 11.53%.

And the Activity [7]?
The Activity was 9.54%.

What about the IC50 [8] of the same compound?
Its IC50 is over 100 µM.

What about the inhibition [9] of the same compound?
The inhibition was “Active”.

And the Activity [10]?
Its Activity is “Active”.

And the Activity [11]?
Its Activity is 6.79%.

And the Activity [12]?
Its Activity is 40.44%.

And the Activity [13]?
Its Activity is 4.1%.

What about the IC50 [14] of the same compound?
Its IC50 is 89.9 µM.

And the inhibition [15]?
The inhibition was “Active”.

And the Activity [16]?
The Activity was “Active”.

And the inhibition [17]?
Its inhibition is “Dose-dependent effect”.

What about the IC50 [18] of the same compound?
The IC50 was 57.1 µM.

And the Activity [19]?
The Activity was “Active”.

And the Activity [20]?
The Activity was 63.02%.

What about the inhibition [21] of the same compound?
The inhibition was “Active”.

What about the inhibition [22] of the same compound?
The inhibition was “Dose-dependent effect”.

What about the inhibition [23] of the same compound?
Its inhibition is “Active”.

What about the Activity [24] of the same compound?
Its Activity is 11.77%.

What about the inhibition [25] of the same compound?
The inhibition was “Active”.

What about the inhibition [26] of the same compound?
Its inhibition is “inactive”.
